Experiments:
Assay in all cases: Ras-Raf disruption / FRET / MOA assay (BRAF RBD)
Type in all cases: biochemical
KRAS G13D = KRAS G13D (Homo sapiens, UniProt P01116+P62937, G13D); details: Ras-Raf disruption, with Cyclophilin A; read-out: KRAS G13D FRET data IC50
Summary of the method: (§1)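 Compound-induced Ras–Cyclophilin A ternary complex disrupting BRAF RBD binding, read as IC50 from reduced TR-FRET ratio relative to DMSO. Final: Ras-GMPPNP 12.5 nM, BRAF RBD 50 nM, Cyclophilin A 25 μM, top compound 30 μM (3-fold, 10 points); 3 h at 25 °C, then 1.5 h with detection antibodies.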

KRAS G13C = KRAS G13C (Homo sapiens, UniProt P01116+P62937, G13C); details: Ras-Raf disruption, with Cyclophilin A; read-out: KRAS G13C FRET data IC50
Chain of KRAS G13C (P01116 1-169 isoform P01116-2 G13C limits assumed): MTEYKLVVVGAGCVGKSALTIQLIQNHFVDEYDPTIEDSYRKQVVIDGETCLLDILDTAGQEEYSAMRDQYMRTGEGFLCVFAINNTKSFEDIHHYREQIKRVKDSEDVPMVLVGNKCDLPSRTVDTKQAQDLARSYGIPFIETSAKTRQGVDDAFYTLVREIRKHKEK
Chain of KRAS G13C (P62937 whole entry): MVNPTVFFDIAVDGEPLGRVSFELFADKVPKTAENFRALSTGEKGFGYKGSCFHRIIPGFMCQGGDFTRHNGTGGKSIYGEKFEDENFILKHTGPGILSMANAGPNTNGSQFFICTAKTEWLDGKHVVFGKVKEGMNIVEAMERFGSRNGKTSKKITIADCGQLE
Summary of the method: as §1

KRAS G12D = KRAS G12D (Homo sapiens, UniProt P01116+P62937, G12D); details: Ras-Raf disruption, with Cyclophilin A; read-out: KRAS G12D FRET data IC50
Chain of KRAS G12D (P01116 1-169 isoform P01116-2 G12D limits assumed): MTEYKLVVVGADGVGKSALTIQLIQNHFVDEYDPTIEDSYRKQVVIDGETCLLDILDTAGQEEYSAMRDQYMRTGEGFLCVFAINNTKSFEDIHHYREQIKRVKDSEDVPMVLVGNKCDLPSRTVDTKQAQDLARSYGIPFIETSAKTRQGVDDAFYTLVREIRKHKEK
Chain of KRAS G12D (P62937 whole entry): as the sequence (P62937 whole entry) above
Summary of the method: as §1

KRAS G12S = KRAS G12S (Homo sapiens, UniProt P01116+P62937, G12S); details: Ras-Raf disruption, with Cyclophilin A; read-out: KRAS G12S FRET data IC50
Chain of KRAS G12S (P01116 1-169 isoform P01116-2 G12S limits assumed): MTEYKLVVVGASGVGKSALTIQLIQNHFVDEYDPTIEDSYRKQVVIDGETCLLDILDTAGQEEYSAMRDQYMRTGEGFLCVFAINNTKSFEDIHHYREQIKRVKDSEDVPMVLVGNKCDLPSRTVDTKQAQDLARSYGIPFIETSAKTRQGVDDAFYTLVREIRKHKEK
Chain of KRAS G12S (P62937 whole entry): as the sequence (P62937 whole entry) above
Summary of the method: as §1

NRAS WT = NRAS WT (Homo sapiens, UniProt P01111+P62937); details: NRAS WT; read-out: NRAS WT FRET data IC50
Chain of NRAS WT (P01111 whole entry): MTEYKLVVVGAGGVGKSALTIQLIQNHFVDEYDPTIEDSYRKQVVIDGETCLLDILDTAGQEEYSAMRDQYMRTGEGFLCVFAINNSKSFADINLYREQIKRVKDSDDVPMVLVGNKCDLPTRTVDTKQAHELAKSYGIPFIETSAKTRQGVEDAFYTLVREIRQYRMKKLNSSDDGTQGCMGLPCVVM
Chain of NRAS WT (P62937 whole entry): as the sequence (P62937 whole entry) above
Summary of the method: as §1

NRAS Q61K = NRAS Q61K (Homo sapiens, UniProt P01111+P62937, Q61K); details: NRAS Q61K; read-out: NRAS Q61K FRET data IC50
Chain of NRAS Q61K (P01111 whole entry Q61K): as the sequence (P01111 whole entry) above, with Q61K counted along it
Chain of NRAS Q61K (P62937 whole entry): as the sequence (P62937 whole entry) above
Summary of the method: as §1

NRAS Q61R = NRAS Q61R (Homo sapiens, UniProt P01111+P62937, Q61R); details: NRAS Q61R; read-out: NRAS Q61R FRET data IC50
Chain of NRAS Q61R (P01111 whole entry Q61R): as the sequence (P01111 whole entry) above, with Q61R counted along it
Chain of NRAS Q61R (P62937 whole entry): as the sequence (P62937 whole entry) above
Summary of the method: as §1

KRAS G12V = KRAS G12V (Homo sapiens, UniProt P01116+P62937, G12V); details: Ras-Raf disruption, with Cyclophilin A; read-out: KRAS G12V FRET data IC50
Chain of KRAS G12V (P01116 1-169 isoform P01116-2 G12V limits assumed): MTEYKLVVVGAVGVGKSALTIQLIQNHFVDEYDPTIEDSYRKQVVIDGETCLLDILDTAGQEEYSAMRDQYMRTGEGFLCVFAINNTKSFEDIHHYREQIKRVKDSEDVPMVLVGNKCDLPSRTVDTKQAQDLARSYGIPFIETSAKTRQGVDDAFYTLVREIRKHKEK
Chain of KRAS G12V (P62937 whole entry): as the sequence (P62937 whole entry) above
Summary of the method: as §1

NRAS G12C = NRAS G12C (Homo sapiens, UniProt P01111+P62937, G12C); details: NRAS G12C; read-out: NRAS G12C FRET data IC50
Chain of NRAS G12C (P01111 whole entry G12C): as the sequence (P01111 whole entry) above, with G12C counted along it
Chain of NRAS G12C (P62937 whole entry): as the sequence (P62937 whole entry) above
Summary of the method: as §1

KRAS Q61H = KRAS Q61H (Homo sapiens, UniProt P01116+P62937, Q61H); details: KRAS Q61H; read-out: KRAS Q61H FRET data IC50
Chain of KRAS Q61H (P01116 1-169 isoform P01116-2 Q61H limits assumed): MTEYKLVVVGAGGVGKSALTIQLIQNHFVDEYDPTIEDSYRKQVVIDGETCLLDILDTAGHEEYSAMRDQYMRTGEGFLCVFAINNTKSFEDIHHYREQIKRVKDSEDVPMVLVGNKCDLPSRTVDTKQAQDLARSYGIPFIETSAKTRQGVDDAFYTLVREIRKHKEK
Chain of KRAS Q61H (P62937 whole entry): as the sequence (P62937 whole entry) above
Summary of the method: as §1

KRAS WT = KRAS WT (Homo sapiens, UniProt P01116+P62937); details: Ras-Raf disruption, with Cyclophilin A; read-out: KRAS WT FRET data IC50
Chain of KRAS WT (P01116 1-169 isoform P01116-2 limits assumed): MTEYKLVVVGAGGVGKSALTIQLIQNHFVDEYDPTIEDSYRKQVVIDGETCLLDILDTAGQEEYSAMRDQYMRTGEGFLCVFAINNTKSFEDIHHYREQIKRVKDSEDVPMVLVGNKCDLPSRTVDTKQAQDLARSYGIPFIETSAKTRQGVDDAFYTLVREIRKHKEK
Chain of KRAS WT (P62937 whole entry): as the sequence (P62937 whole entry) above
Summary of the method: as §1

KRAS G12C = KRAS G12C (Homo sapiens, UniProt P01116+P62937, G12C); details: Ras-Raf disruption, with Cyclophilin A; read-out: KRAS G12C FRET data IC50
Chain of KRAS G12C (P01116 1-169 isoform P01116-2 G12C limits assumed): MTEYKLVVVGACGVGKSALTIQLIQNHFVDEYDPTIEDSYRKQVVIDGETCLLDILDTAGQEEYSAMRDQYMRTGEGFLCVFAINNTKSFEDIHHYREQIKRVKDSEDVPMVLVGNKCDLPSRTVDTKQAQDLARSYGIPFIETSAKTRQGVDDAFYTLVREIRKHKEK
Chain of KRAS G12C (P62937 whole entry): as the sequence (P62937 whole entry) above
Summary of the method: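 TR-FRET read-out after 1.5 h with anti-His Eu-W1024 (10 nM) and anti-GST APC (50 nM), following 3 h at 25 °C of compound (top 30 μM, 3-fold, 10 points) with 25 μM Cyclophilin A, 12.5 nM GMPPNP-loaded K-Ras G12C and 50 nM BRAF RBD; IC50 reported.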

Chain of KRAS G13D (P01116 1-169 isoform P01116-2 G13D limits assumed): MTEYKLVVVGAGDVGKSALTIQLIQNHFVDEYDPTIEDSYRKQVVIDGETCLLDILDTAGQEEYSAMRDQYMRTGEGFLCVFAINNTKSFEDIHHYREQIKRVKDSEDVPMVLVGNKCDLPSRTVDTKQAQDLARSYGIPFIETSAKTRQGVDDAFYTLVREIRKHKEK
Chain of KRAS G13D (P62937 whole entry): as the sequence (P62937 whole entry) above

CCn1c(-c2cccnc2[C@H](C)OC)c2c3cc(ccc31)-c1cc(O)cc(c1)C[C@H](NC(=O)[C@H](C(C)C)N(C)C(=O)[C@H]1CCCCN(C(=O)[C@H]3CN3)C1)C(=O)N1CCC[C@H](N1)C(=O)OCC(C)(C)C2 (atropisomer, axis not shown) [Example 247]
IC50 (KRAS G13D): 100 to 1000 nM | IC50 (KRAS G13C): 100 to 1000 nM | IC50 (KRAS G12D): 1000 to 10000 nM | IC50 (KRAS G12S): 100 to 1000 nM | IC50 (NRAS WT): 100 to 1000 nM | IC50 (NRAS Q61K): 1000 to 10000 nM | IC50 (NRAS Q61R): 1000 to 10000 nM | IC50 (KRAS G12V): 100 to 1000 nM | IC50 (NRAS G12C): 10 to 100 nM | IC50 (KRAS Q61H): 100 to 1000 nM | IC50 (KRAS WT): 100 to 1000 nM | IC50 (KRAS G12C): 10 to 100 nM

CCn1c(-c2cccnc2[C@H](C)OC)c2c3cc(ccc31)-c1cc(O)cc(c1)C[C@H](NC(=O)[C@H](C(C)C)N(C)C(=O)[C@H]1CCCN(C(=O)[C@H]3CN3)C1)C(=O)N1CCC[C@H](N1)C(=O)OCC(C)(C)C2 [Example 165]
IC50 (KRAS G13D): 100 to 1000 nM | IC50 (KRAS G13C): 100 to 1000 nM | IC50 (KRAS G12D): 100 to 1000 nM | IC50 (KRAS G12S): 100 to 1000 nM | IC50 (NRAS WT): 100 to 1000 nM | IC50 (NRAS Q61K): 1000 to 10000 nM | IC50 (NRAS Q61R): 1000 to 10000 nM | IC50 (KRAS G12V): 10 to 100 nM | IC50 (NRAS G12C): < 10 nM | IC50 (KRAS Q61H): 100 to 1000 nM | IC50 (KRAS WT): 100 to 1000 nM | IC50 (KRAS G12C): < 10 nM

CCn1c(-c2cccnc2[C@H](C)OC)c2c3cc(ccc31)-c1cc(O)cc(c1)C[C@H](NC(=O)[C@H](C(C)C)N(C)C(=O)CN(C)S(=O)(=O)[C@@H]1CN1C)C(=O)N1CCC[C@H](N1)C(=O)OCC(C)(C)C2 (single isomer, unassigned) [Example 92]
IC50 (KRAS G13D): 100 to 1000 nM | IC50 (KRAS G13C): 10 to 100 nM | IC50 (KRAS G12D): 100 to 1000 nM | IC50 (KRAS G12S): 10 to 100 nM | IC50 (NRAS WT): 10 to 100 nM | IC50 (NRAS Q61K): 100 to 1000 nM | IC50 (NRAS Q61R): 100 to 1000 nM | IC50 (KRAS G12V): 100 to 1000 nM | IC50 (NRAS G12C): 10 to 100 nM | IC50 (KRAS Q61H): 10 to 100 nM | IC50 (KRAS WT): 10 to 100 nM | IC50 (KRAS G12C): 10 to 100 nM

CCn1c(-c2cccnc2[C@H](C)OC)c2c3cc(ccc31)-c1csc(n1)C[C@H](NC(=O)[C@H](C(C)C)N(C)C(=O)N1CCN(C(=O)[C@@H]3CN3)C[C@H]1C)C(=O)N1CCC[C@H](N1)C(=O)OCC(C)(C)C2 [Example 302]
IC50 (KRAS G13D): 100 to 1000 nM | IC50 (KRAS G13C): 100 to 1000 nM | IC50 (KRAS G12D): 100 to 1000 nM | IC50 (KRAS G12S): 10 to 100 nM | IC50 (NRAS WT): 10 to 100 nM | IC50 (NRAS Q61K): 10 to 100 nM | IC50 (NRAS Q61R): 10 to 100 nM | IC50 (KRAS G12V): 10 to 100 nM | IC50 (NRAS G12C): 10 to 100 nM | IC50 (KRAS Q61H): 10 to 100 nM | IC50 (KRAS WT): 10 to 100 nM | IC50 (KRAS G12C): 10 to 100 nM

CCn1c(-c2cccnc2[C@H](C)OC)c2c3cc(ccc31)-c1cc(O)cc(c1)C[C@H](NC(=O)[C@H](C(C)C)N(C)C(=O)[C@@H]1CCN(C(=O)[C@H]3CN3)[C@@H]1C)C(=O)N1CCC[C@H](N1)C(=O)OCC(C)(C)C2 (atropisomer, axis not shown) [Example 207]
IC50 (KRAS G13D): 100 to 1000 nM | IC50 (KRAS G13C): 10 to 100 nM | IC50 (KRAS G12D): 100 to 1000 nM | IC50 (KRAS G12S): 10 to 100 nM | IC50 (NRAS WT): 10 to 100 nM | IC50 (NRAS Q61K): 100 to 1000 nM | IC50 (NRAS Q61R): 100 to 1000 nM | IC50 (KRAS G12V): 10 to 100 nM | IC50 (NRAS G12C): 10 to 100 nM | IC50 (KRAS Q61H): 10 to 100 nM | IC50 (KRAS WT): 10 to 100 nM | IC50 (KRAS G12C): 10 to 100 nM

CCn1c(-c2cccnc2[C@H](C)OC)c2c3cc(ccc31)-c1cc(O)cc(c1)C[C@H](NC(=O)[C@H](C(C)C)N(C)C(=O)[C@H]1CCCN(C(=O)[C@@H]3CN3)C1)C(=O)N1CCC[C@H](N1)C(=O)OCC(C)(C)C2 [Example 236]
IC50 (KRAS G13D): 100 to 1000 nM | IC50 (KRAS G13C): 100 to 1000 nM | IC50 (KRAS G12D): 100 to 1000 nM | IC50 (KRAS G12S): 100 to 1000 nM | IC50 (NRAS WT): 100 to 1000 nM | IC50 (NRAS Q61K): 1000 to 10000 nM | IC50 (NRAS Q61R): 1000 to 10000 nM | IC50 (KRAS G12V): 100 to 1000 nM | IC50 (NRAS G12C): 10 to 100 nM | IC50 (KRAS Q61H): 100 to 1000 nM | IC50 (KRAS WT): 100 to 1000 nM | IC50 (KRAS G12C): 10 to 100 nM

Reference: patent US20230233569A1 (Revolution Medicines, Inc., priority 2020, published 2023)
